Experimental data as given in ChEMBL document CHEMBL1132397, “Synthesis of 5,8-dimethoxy-3-hydroxy-4-quinolone, a reported inhibitor of HIV RT, and evidence the original proposed structure was incorrect” (Bioorg Med Chem Lett, 1999).

What was measured:
[1] = molecular target: Human immunodeficiency virus type 1 protease (Human immunodeficiency virus 1, UniProt Q72874); assay: Inhibition of RNA-dependent DNA polymerase activity against wild-type HIV-1 RT at a concentration of 100 uM; No inhibition
[2] = molecular target: T1, Human immunodeficiency virus type 1 reverse transcriptase (Human immunodeficiency virus 1, UniProt Q72547); assay: Inhibitory activity against reverse transcriptase of HIV-1
[3] = molecular target: T1, Human immunodeficiency virus type 1 reverse transcriptase; assay: Inhibitory activity against reverse transcriptase of HIV; Inactive

For COc1ccc(OC)c2c(O)c(O)cnc12, which Ki [1] is on record?
The Ki was “Not Active”.

For Oc1cnc2c(O)ccc(O)c2c1O, which Ki [2] is on record?
Its Ki is 490 nM.

How did the Ki [3] turn out when COc1cnc2c(OC)ccc(OC)c2c1O was run?
Its Ki is “Not Active”.
